Measurements reported in paper PMC9354705, “Characterization of TR‐107, a novel chemical activator of the human mitochondrial protease ClpP” (Pharmacology Research & Perspectives, 2022).
Where two headings read alike, the source gives them in different places.

How the values were obtained:
[1] = tested on: MDA‐MB‐231 or SUM159 cells; assay: Caspase‐3/7 activity assay and PARP cleavage; format: cell-based, human; settings: for caspase‐3/7 activity: 24 h, 10 μM ONC201, 150 nM TR‐57, 100 nM TR‐107, 100 nM staurosporine; for PARP cleavage: data not shown
Description: […]. The samples were collected in lysis buffer (50 mM HEPES [pH: 7.4], 5 mM CHAPS, and 5 mM DTT), and caspase activity was measured by monitoring fluorescence (ex/em: 360/460 nm) using a SpectraMax i3x (Molecular Devices).

MDA‐MB‐231 cells = assay: Cell viability (total cell count, Hoechst stain) in MDA‐MB‐231 cells; format: cell-based, human; settings: Homo sapiens, MDA-MB-231, 72 h
[2] = tested on: MDA‐MB‐231 and SUM159 cells; assay: Immunoblotting for mitochondrial proteins; format: cell-based, human; settings: 100 nM TR‐107, 150 nM TR‐57, or 10 μM ONC201
Description: Cell lysates were clarified and immunoblotted as described earlier.[45] Membranes were incubated with primary antibodies (Appendix S1) diluted 1:1000 in 1% fish gelatin (Sigma‐Aldrich, G7041)/TBST overnight at 4°C, removed, washed 3 × 5 min in TBST, and placed in their respective 2° antibodies (1:10 000 dilution in 5% milk/TBST) for 1 h. […] Acquired images were processed/quantified using Image Lab software (BioRad) or Image Studio Lite (LI‐COR).

[3] = Pharmacokinetic analysis in ICR mice; format: in vivo, mouse; settings: for bioavailability: 10 mg/kg oral vs 2.0 mg/kg i.v., read-out: F% (oral bioavailability)
Description: Samples were placed in tubes containing heparin sodium and stored on ice until centrifuged. Blood samples were centrifuged at 6800g for 6 min at 2–8°C within 1 h following sample collection and stored at −80°C. Proteins from plasma sample aliquots (20 μl) were precipitated by the addition of MeOH (400 μl) containing an internal standard (tolbutamide,100 ng/ml), vortexed for 1 min, and centrifuged at 18 000g for 7 min. The supernatant (200 μl) was transferred to 96 well plates for analysis.
Analysis of samples was conducted as follows. […] The PK parameters including Area Under the Curve (AUC[0–∞]) elimination half‐life (t 1/2), maximal plasma concentration (C max), and oral bioavailability (F%) were analyzed by noncompartmental methods.

[4] = cited from earlier work
SUM159 cells = assay: Cell viability (total cell count, Hoechst stain) in SUM159 cells; format: cell-based; settings: Homo sapiens, WT cells, 72 h, mean N = 3
Description: Human TNBC cell line SUM159 was a generous gift from Dr. Gary Johnson (the University of North Carolina at Chapel Hill). MDA‐MB‐231 (WT and CLPP‐KO) cells were provided by Dr. Stanley Lipkowitz (National Cancer Institute). MDA‐MB‐231 cells were cultured in RPMI‐1640 media (Gibco, 11875‐093) supplemented with 10% fetal bovine serum (FBS; VWR‐Seradigm, 97068‐085), and 1% antibiotic–antimycotic (anti/anti; ThermoFisher Scientific, 15240062). SUM159 cells were cultured in Dulbecco's modified Eagle's medium: Nutrient Mixture F‐12 (DMEM/F12; Gibco, 11330‐032) supplemented with 5% FBS, 5 μg/ml insulin (Gibco, 12585014), 1 μg/ml hydrocortisone, and 1% anti/anti. Cells were maintained at 5% CO2 and 37°C and periodically tested for mycoplasma.
Total cell counting assays were performed by seeding MDA‐MB‐231 cells (WT and ClpP‐KO; 4000 cells/well) or SUM159 (WT and ClpP‐KO; 1000 cells/well) in a 96‐well plate (Perkin Elmer, 6005050) and allowed to adhere overnight. The growth medium was then aspirated and replaced with 100 μl of growth medium supplemented with the drug at concentrations indicated in the figure or figure legends. Cells treated with vehicle control (0.1% DMSO, Sigma‐Aldrich D2650) were used as a negative control in all experiments, and cells were incubated with drug‐containing media for 24, 48, or 72 h as indicated in figure legends. Media was then aspirated and replaced with 100 μl Dulbecco's phosphate‐buffered saline (DPBS Gibco, 14190‐144) containing 1 μg/ml Hoechst stain (ThermoFischer Scientific, H3570) and allowed to incubate at 37°C for 30 min. The total cell number was then quantified using the Celigo Imaging Cytometer (Nexcelom).

[5] = target: purified recombinant human ClpP (Homo sapiens, UniProt Q16740); assay: In vitro ClpP activity assay (casein‐FITC degradation); format: biochemical; settings: relative to DMSO, read-out: EC50 (nM) ClpP activation
purified recombinant human ClpP, sequence (Q16740 57-277): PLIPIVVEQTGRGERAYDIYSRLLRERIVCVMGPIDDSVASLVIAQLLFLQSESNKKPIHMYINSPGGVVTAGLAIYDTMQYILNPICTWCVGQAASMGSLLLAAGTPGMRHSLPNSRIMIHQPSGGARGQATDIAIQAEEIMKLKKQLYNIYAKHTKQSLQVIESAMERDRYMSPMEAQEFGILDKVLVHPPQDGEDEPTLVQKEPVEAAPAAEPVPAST
Description: Measurement of in vitro activity of purified recombinant human ClpP was performed with a slight modification to the method previously described.[46] Briefly, ClpP activity was measured through the degradation of casein‐FITC (Sigma‐Aldrich, C0528) in the presence of indicated compounds. […] Enzyme and compounds were mixed and incubated in assay buffer for 30 min before adding casein‐FITC substrate. […] Linear slope of fluorescence signal was used to measure ClpP activity and normalized to DMSO control, expressed as RFU/h.

C3(1)‐Tag cells = assay: Cell viability assay of C3Tag cells; format: cell-based, murine; settings: Mus musculus; 72 h, Hoechst stain, N = 2
[6] = male, mouse, plasma, iv, ICR mice, 2.0 mg/kg i.v.
[7] = male, mouse, plasma, iv, ICR mice, 2.0 mg/kg i.v., read-out: C max
[8] = male, mouse, plasma, iv, ICR mice, 2.0 mg/kg i.v., read-out: T 1/2 (converted)
[9] = male, mouse, plasma, ICR mice, 10 mg/kg oral, read-out: C max
[10] = male, mouse, plasma, ICR mice, 10 mg/kg oral, read-out: T 1/2 (converted)
[11] = WT cells, Hoechst stain, mean N = 3, read-out: IC50 (nM) MDA-MB-231
[12] = male, mouse, plasma, iv, ICR mice, 2.0 mg/kg i.v., read-out: C max (mg/ml)
[13] = male, mouse, plasma, ICR mice, 10 mg/kg oral
[14] = male, mouse, plasma, ICR mice, 10 mg/kg oral, read-out: C max (mg/ml)

| AUC(0-inf) [3, 6] | Cmax [3, 7] | half-life [3, 8] | bioavailability ([3]; male, mouse, plasma, ICR mice) | Cmax [3, 9] | half-life [3, 10] | EC50 [5] | Cmax [3, 12] | Cmax [3, 14] | SMILES | IC50 (MDA‐MB‐231 cells; [11]) | IC50 (SUM159 cells) | also measured |
| --- | --- | --- | --- | --- | --- | --- | --- | --- | --- | --- | --- | --- |
| – | – | – | – | – | – | 830 nM | – | – | O=C1C2=C(CCN(Cc3ccccc3)C2)N2CCN=C2N1Cc1ccc(F)cc1F [ONC206, reference compound] | 260 nM | 180 nM | – |
| 638 ng·h/mL | 2200 nM | 101 min | 14% | 640 nM | 89.4 min | 310 nM | 950 ng/mL | 282 ng/mL | O=C1C2=C(CCN(Cc3ccccc3)C2)N2CCN=C2N1Cc1ccc(C(F)(F)F)cc1 [ONC212/TR‐31, reference compound] | 80 nM | 27 nM | AUC(0-inf) [3, 13]: 449 ng·h/mL; reported t 1/2 ([4]; oral dose of 125 mg/kg): 4.3 h |
| 155 ng·h/mL | 350 nM | 63.6 min | 33% | 290 nM | 69.6 min | – | 154 ng/mL | 127 ng/mL | C#Cc1cccc(CN2CCC3=C(C2)C(=O)N(Cc2ccc(Cl)cc2)C2=NCCN23)c1 [TR‐27] | – | – | – |
| 351 ng·h/mL | 1500 nM | 43.8 min | 33% | 670 nM | 57 min | – | 636 ng/mL | 294 ng/mL | N#Cc1cccc(CN2CCC3=C(C2)C(=O)N(Cc2ccc(Cl)cc2)C2=NCCN23)c1 [TR‐65] | – | – | AUC(0-inf) [3, 13]: 584 ng·h/mL |
| – | – | – | – | – | – | 310 nM | – | – | N#Cc1cccc(CN2CCC3=C(C2)C(=O)N(Cc2ccc(C(F)(F)F)cc2)C2=NCCCN23)c1 [TR‐98] | 21 nM | 24 nM | – |

Further lines, the compound ahead of its results:

| SMILES | AUC(0-inf) [3, 6] | Cmax [3, 7] | half-life [3, 8] | bioavailability ([3]; male, mouse, plasma, ICR mice) | Cmax [3, 9] | half-life [3, 10] | EC50 [5] | Cmax [3, 12] | Cmax [3, 14] | IC50 (MDA‐MB‐231 cells; [11]) | IC50 (SUM159 cells) | also measured |
| --- | --- | --- | --- | --- | --- | --- | --- | --- | --- | --- | --- | --- |
| Cc1ccccc1CN1C(=O)C2=C(CCN(Cc3ccccc3)C2)N2CCN=C12 [ONC201, reference compound] | 50.7 ng·h/mL | 310 nM | 15.6 min | 1.2% | 23 nM | 18.6 min | – | – | – | – | – | caspase‐3/7 activity [1]: no increase; PARP cleavage [1]: no increase; IC50 (MDA‐MB‐231 cells; media containing galactose, read-out: IC50 (nM) Galactose): 350 nM; IC50 (MDA‐MB‐231 cells; media containing glucose, read-out: IC50 [glucose]): 1700 nM; TUFM and TFAM protein levels by 24 h [2]: complete or near‐complete loss; time at which TUFM and TFAM protein levels began to decline [2]: ~ 6 h; increase in exposure (AUC) vs 10 mg/kg oral ([3]; 25 mg/kg oral): 46 X; AUC (0–∞) ([3]; ICR mice, 10 mg/kg oral): 3.13 ng·h/mL; Cmax ([3]; male, mouse, in vivo, iv, ICR mice, 2.0 mg/kg i.v., read-out: C max (mg/ml)): 122 ng/mL; Cmax ([3]; male, mouse, in vivo, ICR mice, 10 mg/kg oral, read-out: C max (mg/ml)): 8.99 ng/mL; Cmax ([3]; male, mouse, in vivo, ICR mice, 25 mg/kg oral, blood collection 0.083–4 h, read-out: C max (mg/ml)): 195 ng/mL; AUC(0-inf) ([3]; male, mouse, plasma, ICR mice, 25 mg/kg oral, blood collection 0.083–4 h): 145 ng·h/mL; Cmax ([3]; male, mouse, plasma, ICR mice, 25 mg/kg oral, blood collection 0.083–4 h, read-out: C max): 500 nM; half-life ([3]; male, mouse, plasma, ICR mice, i.v. 2 mg/kg and oral 10 mg/kg arms, read-out: t 1/2 (range over study arms)): 15.6 to 18.6 min; reported t 1/2 ([4]; in mice, higher doses): 6.4 h |
| CC(=O)O[C@H]1C(=O)[C@@]2(C)[C@H]([C@H](OC(=O)c3ccccc3)[C@]3(O)C[C@H](OC(=O)[C@H](O)[C@@H](NC(=O)c4ccccc4)c4ccccc4)C(C)=C1C3(C)C)[C@]1(OC(C)=O)CO[C@@H]1C[C@@H]2O [Paclitaxel, paclitaxel, reference compound] | – | – | – | – | – | – | – | – | – | – | – | IC50 (C3(1)‐Tag cells): 14 nM |
| CN[C@@H]1C[C@H]2O[C@@](C)([C@@H]1OC)n1c3ccccc3c3c4c(c5c6ccccc6n2c5c31)C(=O)NC4 [Staurosporine, staurosporine, reference compound] | – | – | – | – | – | – | – | – | – | – | – | caspase‐3/7 activity [1]: strong increase |
| Cn1c2c(c(=O)n(Cc3ccc(Cl)cc3)c1=O)CN(Cc1cccc(C#N)c1)CC2 [TR‐57] | 886 ng·h/mL | 3000 nM | 91.2 min | 61% | 4100 nM | 84 min | – | 1240 ng/mL | 1710 ng/mL | – | – | caspase‐3/7 activity [1]: no increase; PARP cleavage [1]: no increase; TUFM and TFAM protein levels by 24 h [2]: complete or near‐complete loss; time at which TUFM and TFAM protein levels began to decline [2]: ~ 6 h; AUC ([3]; male, mouse, plasma, po, ICR mice, 10 mg/kg orally, read-out: exposure (AUC)): 2710 ng·h/mL; AUC(0-inf) [3, 13]: 2710 ng·h/mL |
| Cc1nc2c(c(=O)n1Cc1ccc(Cl)cc1)CN(Cc1cccc(C#N)c1)CC2 [TR‐97] | – | – | – | – | – | – | 340 nM | – | – | 104 nM | 53 nM | – |
| N#Cc1cccc(CN2CCC3=C(C2)C(=O)N(Cc2ccc(Cl)cc2)C2=NCC(F)(F)CN23)c1 [TR‐106] | – | – | – | – | – | – | 1100 nM | – | – | 430 nM | 120 nM | – |
| N#Cc1cccc(CC2CCC3=C(C2)C(=O)N(Cc2ccc(C(F)(F)F)cc2)C2=NCCN23)c1 (stereo not shown) [TR‐109] | – | – | – | – | – | – | 670 nM | – | – | 2200 nM | 4600 nM | – |
| N#Cc1cccc(CC2CCC3=C(C2)C(=O)N(Cc2ccc(Cl)cc2)C2=NCCN23)c1 (stereo not shown) [TR‐122] | – | – | – | – | – | – | 1100 nM | – | – | 2600 nM | 3500 nM | – |
